Measured values taken from US9708314B2, “Heterocyclic amide compound” (NISSAN CHEMICAL INDUSTRIES, LTD., priority 2013, dated 2017).

How the values were obtained:
Assay type in all cases: in vivo
[1] = test system: Echinochloa crus-galli var. crus-galli; assay: Test Example 3: herbicidal effect by application to foliage (Wagner pot, water depth 0.1-0.5 cm); details: Nineteenth Table; application herbicide amount 320 g/ha
In short: (§1)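 Scores (0–5) reflect herbicidal ratio three weeks after a foliar spray: 0 is 5% or less, 5 is 90% or more. Plants had grown 14 days in alluvial soil pots in a 25–30 °C greenhouse before treatment with water-diluted emulsion at a set g/ha.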

Cyperus difformis = assay: as above; details: Nineteenth Table; application herbicide amount 320 g/ha
In short: as §1

Leptochloa chinensis = assay: as above; details: Nineteenth Table; application herbicide amount 320 g/ha
In short: as §1

Stellaria media = assay: Test Example 4: herbicidal effect by application to foliage (diluvial soil, plastic box); details: application to foliage, application herbicide amount 320 g/ha
In short: (§2)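 Greenhouse plants (25° C. to 30° C., 14 d, diluvial soil) receive a foliar spray of water-diluted emulsifiable formulation at defined g/ha. Grading after 3 weeks uses a six-step herbicidal-ratio scale, with 4 covering 70% to <90% and 1 covering 5% to <20%.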

Amaranthus retroflexus = assay: as above; details: application to foliage, application herbicide amount 320 g/ha
In short: as §2

Zea mays = assay: Test Example 4: effect on crop by application to foliage (diluvial soil, plastic box); details: application to foliage, application herbicide amount 320 g/ha
In short: as §2

Row | Compound | H (Echinochloa crus-galli var. crus-galli) herbicidal ratio grade [1] | E (Cyperus difformis) herbicidal ratio grade (Cyperus difformis) | D (Leptochloa chinensis) herbicidal ratio grade (Leptochloa chinensis) | P (Stellaria media) herbicidal effect (Stellaria media) | N (Amaranthus retroflexus) herbicidal effect (Amaranthus retroflexus) | b (Zea mays) effect on crop (Zea mays)
1 | CCSc1nnc2c(C(=O)Nc3nnc(C)o3)ccc(C(F)(F)F)n12 [1-032] | 5 (Herbicidal ratio of 90% or more (almost completely withered)) | 5 (Herbicidal ratio of 90% or more (almost completely withered)) | 5 (Herbicidal ratio of 90% or more (almost completely withered)) | 5 (Herbicidal ratio of 90% or more (almost completely withered)) | 5 (Herbicidal ratio of 90% or more (almost completely withered)) | 0 (Herbicidal ratio of 5% or less (almost no effect))
2 | Cc1nnc(NC(=O)c2ccc(C(F)(F)F)n3c(SC(C)C)nnc23)o1 [1-033] | 5 (Herbicidal ratio of 90% or more (almost completely withered)) | 5 (Herbicidal ratio of 90% or more (almost completely withered)) | 5 (Herbicidal ratio of 90% or more (almost completely withered)) | 5 (Herbicidal ratio of 90% or more (almost completely withered)) | 5 (Herbicidal ratio of 90% or more (almost completely withered)) | 0 (Herbicidal ratio of 5% or less (almost no effect))
3 | CC[S+]([O-])c1nnc2c(C(=O)Nc3nnc(C)o3)ccc(C(F)(F)F)n12 (stereo not drawn) [1-034] | 5 (Herbicidal ratio of 90% or more (almost completely withered)) | 5 (Herbicidal ratio of 90% or more (almost completely withered)) | 5 (Herbicidal ratio of 90% or more (almost completely withered)) | 5 (Herbicidal ratio of 90% or more (almost completely withered)) | 5 (Herbicidal ratio of 90% or more (almost completely withered)) | 5 (Herbicidal ratio of 90% or more (almost completely withered))
4 | Cc1nnc(NC(=O)c2ccc(C(F)(F)F)n3c([S+]([O-])C(C)C)nnc23)o1 (stereo not drawn) [1-035] | 5 (Herbicidal ratio of 90% or more (almost completely withered)) | 5 (Herbicidal ratio of 90% or more (almost completely withered)) | 5 (Herbicidal ratio of 90% or more (almost completely withered)) | 5 (Herbicidal ratio of 90% or more (almost completely withered)) | 5 (Herbicidal ratio of 90% or more (almost completely withered)) | 4 (Herbicidal ratio of 70% or more and less than 90%)
5 | Cc1nnc(NC(=O)c2ccc(C(F)(F)F)n3c(C[S+](C)[O-])nnc23)o1 (stereo not drawn) [1-036] | 5 (Herbicidal ratio of 90% or more (almost completely withered)) | 5 (Herbicidal ratio of 90% or more (almost completely withered)) | 5 (Herbicidal ratio of 90% or more (almost completely withered)) | 5 (Herbicidal ratio of 90% or more (almost completely withered)) | 5 (Herbicidal ratio of 90% or more (almost completely withered)) | 3 (Herbicidal ratio of 40% or more and less than 70%)
6 | Cc1nnc(NC(=O)c2ccc(C(F)(F)F)n3c(CS(C)(=O)=O)nnc23)o1 [1-037] | 5 (Herbicidal ratio of 90% or more (almost completely withered)) | 5 (Herbicidal ratio of 90% or more (almost completely withered)) | 5 (Herbicidal ratio of 90% or more (almost completely withered)) | 4 (Herbicidal ratio of 70% or more and less than 90%) | 5 (Herbicidal ratio of 90% or more (almost completely withered)) | 0 (Herbicidal ratio of 5% or less (almost no effect))
7 | Cc1nnc(NC(=O)c2ccc(C(F)(F)F)n3c(C[S+]([O-])CC(F)(F)F)nnc23)o1 (stereo not drawn) [1-038] | 5 (Herbicidal ratio of 90% or more (almost completely withered)) | 4 (Herbicidal ratio of 70% or more and less than 90%) | 5 (Herbicidal ratio of 90% or more (almost completely withered)) | 5 (Herbicidal ratio of 90% or more (almost completely withered)) | 5 (Herbicidal ratio of 90% or more (almost completely withered)) | 0 (Herbicidal ratio of 5% or less (almost no effect))
8 | Cc1nnc(NC(=O)c2ccc(C(F)(F)F)n3c(S(C)(=O)=O)nnc23)o1 [1-040] | 4 (Herbicidal ratio of 70% or more and less than 90%) | 4 (Herbicidal ratio of 70% or more and less than 90%) | 5 (Herbicidal ratio of 90% or more (almost completely withered)) | 5 (Herbicidal ratio of 90% or more (almost completely withered)) | 5 (Herbicidal ratio of 90% or more (almost completely withered)) | 0 (Herbicidal ratio of 5% or less (almost no effect))
9 | CCS(=O)(=O)c1nnc2c(C(=O)Nc3nnc(C)o3)ccc(C(F)(F)F)n12 [1-041] | 4 (Herbicidal ratio of 70% or more and less than 90%) | 5 (Herbicidal ratio of 90% or more (almost completely withered)) | 5 (Herbicidal ratio of 90% or more (almost completely withered)) | 5 (Herbicidal ratio of 90% or more (almost completely withered)) | 5 (Herbicidal ratio of 90% or more (almost completely withered)) | 0 (Herbicidal ratio of 5% or less (almost no effect))
10 | Cc1ccc(-c2nnc3c(C(=O)Nc4nnc(C)o4)ccc(C(F)(F)F)n23)cc1 [1-043] | 5 (Herbicidal ratio of 90% or more (almost completely withered)) | 5 (Herbicidal ratio of 90% or more (almost completely withered)) | 4 (Herbicidal ratio of 70% or more and less than 90%) | 4 (Herbicidal ratio of 70% or more and less than 90%) | 5 (Herbicidal ratio of 90% or more (almost completely withered)) | 4 (Herbicidal ratio of 70% or more and less than 90%)
11 | Cc1nnc(NC(=O)c2ccc(C(F)(F)F)n3c(-c4ccc(F)cc4)nnc23)o1 [1-044] | 5 (Herbicidal ratio of 90% or more (almost completely withered)) | 4 (Herbicidal ratio of 70% or more and less than 90%) | 4 (Herbicidal ratio of 70% or more and less than 90%) | 4 (Herbicidal ratio of 70% or more and less than 90%) | 5 (Herbicidal ratio of 90% or more (almost completely withered)) | 0 (Herbicidal ratio of 5% or less (almost no effect))
12 | COc1cccc(-c2nnc3c(C(=O)Nc4nnc(C)o4)ccc(C(F)(F)F)n23)c1 [1-046] | 5 (Herbicidal ratio of 90% or more (almost completely withered)) | 3 (Herbicidal ratio of 40% or more and less than 70%) | 3 (Herbicidal ratio of 40% or more and less than 70%) | 4 (Herbicidal ratio of 70% or more and less than 90%) | 5 (Herbicidal ratio of 90% or more (almost completely withered)) | 1 (Herbicidal ratio of 5% or more and less than 20%)
13 | COc1ccccc1-c1nnc2c(C(=O)Nc3nnc(C)o3)ccc(C(F)(F)F)n12 [1-047] | 5 (Herbicidal ratio of 90% or more (almost completely withered)) | 4 (Herbicidal ratio of 70% or more and less than 90%) | 5 (Herbicidal ratio of 90% or more (almost completely withered)) | 4 (Herbicidal ratio of 70% or more and less than 90%) | 5 (Herbicidal ratio of 90% or more (almost completely withered)) | 0 (Herbicidal ratio of 5% or less (almost no effect))
14 | Cc1nnc(NC(=O)c2ccc(C(F)(F)F)n3c(CC(=O)O)nnc23)o1 [1-048] | 5 (Herbicidal ratio of 90% or more (almost completely withered)) | 3 (Herbicidal ratio of 40% or more and less than 70%) | 4 (Herbicidal ratio of 70% or more and less than 90%) | 4 (Herbicidal ratio of 70% or more and less than 90%) | 4 (Herbicidal ratio of 70% or more and less than 90%) | 0 (Herbicidal ratio of 5% or less (almost no effect))
15 | Cc1nnc(NC(=O)c2ccc(C(F)(F)F)n3c(CC(=O)OC(C)C)nnc23)o1 [1-049] | 5 (Herbicidal ratio of 90% or more (almost completely withered)) | 4 (Herbicidal ratio of 70% or more and less than 90%) | 4 (Herbicidal ratio of 70% or more and less than 90%) | 4 (Herbicidal ratio of 70% or more and less than 90%) | 5 (Herbicidal ratio of 90% or more (almost completely withered)) | 0 (Herbicidal ratio of 5% or less (almost no effect))
